Assay [1] has as its system HeLa (HER2-negative cervical cancer cell line). The assay is described as follows: antiproliferative effect, HeLa. The class given is cell-based. Conditions: Homo sapiens, 72 hours.
Another assay concerns Ki-67. The assay is described as follows: JIMT-1 xenograft, Ki-67. It counts as in vivo, mice. The conditions noted are these: 4 mg/kg, vs TZMB-treated group. As for the experimental part:
(§1) Xenograft mice were generated to evaluate the anticancer effects of the candidate compound. NCI-N87 and JIMT-1 cells (5×10^6 cells), dissolved in 100 μL of 1× phosphate-buffered saline (PBS), were subcutaneously injected into the right flanks of 5-week-old female athymic nude mice (Envigo, USA) or 4-week-old female NOD-SCID mice (Koatech, South Korea). When the tumors reached a volume of 90-100 mm^3, the mice were randomized into designated groups. For the NCI-N87 xenograft, intravenous administration was performed six times at 3-day intervals. For the JIMT-1 xenograft, intraperitoneal administration was performed eight times at 3-day intervals. […] Tumor size changes were monitored until the mean tumor size in the control group reached 2,000-2,500 mm^3. On day 28 for the NCI-N87 xenograft and day 46 for the JIMT-1 xenograft, the mice were sacrificed, and tumors were excised to determine relative tumor sizes. Tumor length (L) and width (W) were measured with calipers, and tumor volume was calculated using the formula: […]
(§2) For immunohistochemistry (IHC) analysis, tumors from the xenograft models were prepared as paraffin-embedded sections. […] The control group was counterstained with hematoxylin, and the IHC staining was evaluated under an optical microscope at 200× magnification.

Another assay relates to HER2. The assay is described as follows: IHC of NCI-N87 xenograft tumors, HER2. It counts as in vivo, mice. Conditions: vs control group. As for the experimental part:
as §1, §2

The subject of assay [2] is c-PARP, c-caspase 7, bcl-2. The assay is described as follows: pro- and anti-apoptotic marker levels. It counts as cell-based. The procedure:
For western blot analysis, cells were seeded in a 6-well plate and lysed in 1×RIPA lysis buffer (Cell Signaling, USA) containing 1% 0.1 M [COMPOUND LEFT OUT] and 1% 100× protease inhibitor cocktail solution (Genedepot, USA). Total protein levels were standardized using the Pierce™ BCA Protein Assay Kit (Thermo Fisher Scientific, USA) and a microplate reader (Tecan Group Ltd., Switzerland). A total of 20 μg of protein was loaded onto a 10-15% SDS-PAGE acrylamide gel and transferred to a 0.2 μm PVDF membrane (Pall Life Science, USA). The membrane was blocked with 5% skim milk or 5% BSA, and the membrane was cultured with primary antibodies (purchased from Thermo Fisher, Cell Signaling, Santa Cruz, Novus, or MBL) at room temperature for 3 hours or overnight at 4 °C. The blot was washed three times with Tris-buffered saline containing 0.1% Tween20 (1×TBST) and incubated with an HRP-conjugated secondary antibody (GeneTex, USA). Protein bands were detected using ECL solution reagents (GE Healthcare, USA) and the LAS-3000 imaging system (Fuji Photo Film Co., Ltd., Japan), and captured images were analyzed using Multi-Gauge software (Fuji Photo Film Co. Ltd.). […]
Specifically, 5×10^5 NCI-N87 cells were seeded in 60 mm dishes and cultured until they reached 70-80% confluence. […] Cell cycle analysis was performed using a fluorescence-activated cell sorting (FACS) device (BD Biosciences, USA).

In the next assay the test system is HER2 protein. The assay is described as follows: HER2 protein expression. It counts as cell-based. Conditions: dose-dependent. The procedure: For western blot analysis, cells were seeded in a 6-well plate and lysed in 1×RIPA lysis buffer (Cell Signaling, USA) containing 1% 0.1 M [COMPOUND LEFT OUT] and 1% 100× protease inhibitor cocktail solution (Genedepot, USA). Total protein levels were standardized using the Pierce™ BCA Protein Assay Kit (Thermo Fisher Scientific, USA) and a microplate reader (Tecan Group Ltd., Switzerland). A total of 20 μg of protein was loaded onto a 10-15% SDS-PAGE acrylamide gel and transferred to a 0.2 μm PVDF membrane (Pall Life Science, USA). The membrane was blocked with 5% skim milk or 5% BSA, and the membrane was cultured with primary antibodies (purchased from Thermo Fisher, Cell Signaling, Santa Cruz, Novus, or MBL) at room temperature for 3 hours or overnight at 4 °C. The blot was washed three times with Tris-buffered saline containing 0.1% Tween20 (1×TBST) and incubated with an HRP-conjugated secondary antibody (GeneTex, USA). Protein bands were detected using ECL solution reagents (GE Healthcare, USA) and the LAS-3000 imaging system (Fuji Photo Film Co., Ltd., Japan), and captured images were analyzed using Multi-Gauge software (Fuji Photo Film Co. Ltd.). The preparation of cell lysates for subsequent analyses was performed using the same method as described for western blot analysis.

The subject of assay [3] is T47D (HER2-negative breast cancer cell line). The assay is described as follows: antiproliferative effect, T47D. The class given is cell-based. The conditions noted are these: Homo sapiens, 72 hours.
Assay [4] concerns NCI-N87 (HER2-positive gastric cancer cell line). The assay is described as follows: antiproliferative effect, NCI-N87. The class given is cell-based. The conditions noted are these: 72 hours.
The target in the next assay is ErbB2 (Homo sapiens, UniProt P04626). The assay is described as follows: kinase profiling, ErbB2. The class given is biochemical. The conditions noted are these: read-out: In vitro kinase inhibitory activity (%). The procedure:
(§3) Kinase inhibitory activity of the candidate compound at 10 μM and 25 μM was assessed using Eurofins Kinase Profiling Services. Inhibitory effects on c-RAF, EGFR, ErbB2, ErbB4, and PI3 kinase were analyzed according to the Kinase Profiler Service Assay protocol.

Another assay concerns the target ErbB4 (Homo sapiens, UniProt Q15303). The assay is described as follows: kinase profiling, ErbB4. It counts as biochemical. The conditions noted are these: read-out: In vitro kinase inhibitory activity (%). As for the experimental part:
as §3

Each structure is given as a SMILES string.

Chain of ErbB4 (Q15303 26-1308): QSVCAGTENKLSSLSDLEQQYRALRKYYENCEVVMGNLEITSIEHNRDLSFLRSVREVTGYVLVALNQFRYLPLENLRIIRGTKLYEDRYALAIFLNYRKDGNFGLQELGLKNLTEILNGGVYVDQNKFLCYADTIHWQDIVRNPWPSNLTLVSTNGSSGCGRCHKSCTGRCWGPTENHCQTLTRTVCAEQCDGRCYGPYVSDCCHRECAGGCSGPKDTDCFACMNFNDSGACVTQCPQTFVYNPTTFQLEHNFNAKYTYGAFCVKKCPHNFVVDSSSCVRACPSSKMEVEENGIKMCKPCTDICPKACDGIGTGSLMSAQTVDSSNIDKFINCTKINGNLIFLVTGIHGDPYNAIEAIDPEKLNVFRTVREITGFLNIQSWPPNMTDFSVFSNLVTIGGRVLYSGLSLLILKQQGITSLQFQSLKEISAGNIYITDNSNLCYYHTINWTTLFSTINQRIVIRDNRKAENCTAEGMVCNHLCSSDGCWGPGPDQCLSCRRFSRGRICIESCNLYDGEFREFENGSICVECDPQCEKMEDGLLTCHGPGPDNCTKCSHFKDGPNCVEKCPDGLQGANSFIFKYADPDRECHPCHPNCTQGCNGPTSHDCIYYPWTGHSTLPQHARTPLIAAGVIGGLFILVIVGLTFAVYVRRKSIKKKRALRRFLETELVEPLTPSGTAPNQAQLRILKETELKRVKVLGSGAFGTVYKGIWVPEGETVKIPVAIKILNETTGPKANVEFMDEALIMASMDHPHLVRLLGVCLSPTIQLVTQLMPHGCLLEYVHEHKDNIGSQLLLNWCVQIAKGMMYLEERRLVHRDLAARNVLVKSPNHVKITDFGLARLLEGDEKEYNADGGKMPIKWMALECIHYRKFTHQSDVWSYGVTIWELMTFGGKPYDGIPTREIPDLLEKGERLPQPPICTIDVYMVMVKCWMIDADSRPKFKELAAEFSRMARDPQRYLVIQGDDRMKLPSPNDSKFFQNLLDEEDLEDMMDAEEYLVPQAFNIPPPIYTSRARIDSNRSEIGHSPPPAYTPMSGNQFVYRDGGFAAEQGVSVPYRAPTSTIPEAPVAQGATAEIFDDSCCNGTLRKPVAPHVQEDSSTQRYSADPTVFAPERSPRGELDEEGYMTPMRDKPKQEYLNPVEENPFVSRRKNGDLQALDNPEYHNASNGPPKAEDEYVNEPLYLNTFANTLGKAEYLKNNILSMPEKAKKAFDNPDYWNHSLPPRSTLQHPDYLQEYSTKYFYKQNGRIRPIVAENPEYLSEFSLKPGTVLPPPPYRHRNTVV
Chain of ErbB2 (P04626 676-1255 limits assumed): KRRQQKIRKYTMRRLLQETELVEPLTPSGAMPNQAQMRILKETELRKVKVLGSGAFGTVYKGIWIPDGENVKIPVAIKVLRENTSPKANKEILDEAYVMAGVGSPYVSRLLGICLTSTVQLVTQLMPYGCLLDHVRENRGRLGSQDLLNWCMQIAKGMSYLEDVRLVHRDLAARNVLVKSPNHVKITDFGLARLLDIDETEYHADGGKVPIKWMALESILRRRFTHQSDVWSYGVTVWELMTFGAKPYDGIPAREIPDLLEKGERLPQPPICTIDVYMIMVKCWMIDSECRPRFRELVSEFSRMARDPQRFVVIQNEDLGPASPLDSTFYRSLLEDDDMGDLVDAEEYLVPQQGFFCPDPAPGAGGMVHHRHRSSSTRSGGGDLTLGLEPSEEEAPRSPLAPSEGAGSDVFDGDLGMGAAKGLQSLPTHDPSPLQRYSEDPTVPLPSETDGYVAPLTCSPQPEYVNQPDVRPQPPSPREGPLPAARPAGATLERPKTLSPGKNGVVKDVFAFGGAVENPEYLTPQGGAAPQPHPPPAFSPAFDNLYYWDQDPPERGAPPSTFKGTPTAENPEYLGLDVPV

As to `CC(=O)N1N=C(c2cccc(O)c2)CC1c1ccc(Cl)cc1` (stereo not shown) [Compound 15, 1-[5-(4-Chlorophenyl)-3-(3-hydroxyphenyl)-4,5-dihydropyrazol-1-yl]-ethanone], the IC50 in assay [1] worked out at 16.92 ± 0.1 µM; in assay [3] it was 9.99 ± 0.2 µM; in [4] (Homo sapiens, NCI-N87, HER2-positive), 1.56 ± 0.14 µM. Further, the “proliferation marker Ki-67” value in the assay with Ki-67 is on record as “significantly reduced in the candidate compound-treated group compared to the TZMB-treated group”. Also, in the assay on HER2, the HER2 levels reduction entry was “approximately 1.8 fold”. Moreover, the “anti-apoptotic marker bcl-2” value in assay [2] is on record as “reduced the levels of the anti-apoptotic marker bcl-2”. Also, in assay [2], the “pro-apoptotic markers c-PARP and c-caspase 7” value is “induced an increase in the pro-apoptotic markers c-PARP and c-caspase 7”. Moreover, the “HER2 protein expression level” value with HER2 protein is “significantly downregulate HER2 gene and protein expression levels in a dose-dependent manner”. Further, the “growth of NCI-N87 cells” value in [4] is “significantly inhibited the growth of NCI-N87 cells”. The inhibition at 10 µM on ErbB2 (ErbB2, 10 μM) was determined as 2%; on ErbB4 (ErbB4, 10 μM), 0%. For the same compound, the inhibition at 25 µM at ErbB2 (ErbB2, 25 μM) was 0%; on ErbB4 (ErbB4, 25 μM), 0%.

One may read the IC50 as the concentration needed to halve the response being measured.

The values above are taken from patent publication US20260373119A1, “NOVEL COMPOUND, AND COMPOSITION FOR PREVENTING OR TREATING HER2-POSITIVE CANCER, COMPRISING SAME” (EWHA UNIVERSITY - INDUSTRY COLLABORATION FOUNDATION, priority 2022, published 2026).
